Usually ED50 stands for the dose at which the effect has come halfway, by size or by number of responders. Lower therefore signals greater potency.

Values after ≈ are worked out from the molar mass of the structure shown. Bounds are passed on as bounds.

This passage reports ED50 and MIC results from patent US4396613A, “23-Ester derivatives of DMT and method of using same” (Eli Lilly and Company, priority 1981, dated 1983).

Assay [1] concerns Streptococcus pyogenes C203. Kind of assay: experimental infection in mice (ED50). As to conditions: doses given 1 and 4 hours postinfection. Type of assay: in vivo. How it is done: The 23-ester derivatives of DMT of this invention have shown in vivo antimicrobial activity against experimental bacterial infections caused by gram-positive bacteria. When two doses of test compound were admininstered to mice with experimental infections, the activity observed was measured as an ED50 value [effective dose in mg/kg to protect 50% of the test animals: see Warren Wick, et al., J. Bacteriol. 81, 233-235 (1961)].
^a mg/kg × 2; doses given 1 and 4 hours postinfection

For assay [2], the system named is Staphylococcus aureus X400. In words: standard agar-dilution assay (MIC). The note with it: Staphylococcus aureus X400, methicillin-resistant strain, unit assumed. It is filed as cell-based. How it is done:
(§1) The MIC's in Table II were determined by standard agar-dilution assays. The MIC's in Table III were obtained using a conventional broth-dilution microtiter test.
^c Methicillinresistant-strain

Assay [3] relates to Staphylococcus aureus S13E. In words: standard agar-dilution assay (MIC). It is filed as cell-based. The note with it: unit assumed. The procedure: as §1
Assay [4] deals with Staphylococcus epidermidis EPI1. In words: standard agar-dilution assay (MIC). Type of assay: cell-based. As to conditions: unit assumed. How it is done: as §1
Assay [5] has as its system Haemophilus influenzae Holt. Kind of assay: standard agar-dilution assay (MIC). It is filed as cell-based. As to conditions: ampicillin-sensitive strain, unit assumed. The procedure: as §1
In assay [6] the test system is Haemophilus influenzae R252. Kind of assay: standard agar-dilution assay (MIC). Type of assay: cell-based. As to conditions: Haemophilus influenzae R252, ampicillin-resistant strain, unit assumed. The procedure: as §1
Assay [7] relates to Staphylococcus aureus X1.1. In words: standard agar-dilution assay (MIC). It is filed as cell-based. As to conditions: unit assumed. How it is done:
as §1

For assay [8], the system named is Staphylococcus epidermidis EPI2. Kind of assay: standard agar-dilution assay (MIC). It is filed as cell-based. As to conditions: unit assumed. How it is done: as §1
The subject of assay [9] is Streptococcus Group D X66. Kind of assay: standard agar-dilution assay (MIC). As to conditions: unit assumed. It is filed as cell-based. How it is done:
as §1

The subject of assay [10] is Streptococcus Group 9960. In words: standard agar-dilution assay (MIC). Type of assay: cell-based. The note with it: unit assumed. How it is done:
as §1

For assay [11], the system named is Streptococcus pyogenes C203. In words: standard agar-dilution assay (MIC). Type of assay: cell-based. As to conditions: unit assumed. The procedure:
as §1

Assay [12] has as its system Staphylococcus aureus V41. Kind of assay: standard agar-dilution assay (MIC). It is filed as cell-based. The note with it: Staphylococcus aureus V41, penicillin-resistant strain, unit assumed. How it is done:
as §1
^b Penicillinresistant strain

Assay [13] has as its system Pasteurella multocida 60A. Kind of assay: conventional broth-dilution microtiter test (MIC). It is filed as cell-based. As to conditions: avian isolate, unit assumed. The procedure: as §1
Assay [14] has as its system Staphylococcus aureus. In words: conventional broth-dilution microtiter test (MIC). It is filed as cell-based. The note with it: unit assumed. How it is done:
as §1

The subject of assay [15] is Mycoplasma gallisepticum. Kind of assay: conventional broth-dilution microtiter test (MIC). It is filed as cell-based. As to conditions: unit assumed. The procedure: as §1
Assay [16] has as its system Mycoplasma hyorhinis. In words: conventional broth-dilution microtiter test (MIC). It is filed as cell-based. As to conditions: unit assumed. How it is done:
as §1

Assay [17] deals with Pasteurella multocida 17E. In words: conventional broth-dilution microtiter test (MIC). Type of assay: cell-based. As to conditions: bovine isolate, unit assumed. The procedure:
as §1

In assay [18] the test system is Streptococcus sp. 80. In words: conventional broth-dilution microtiter test (MIC). Type of assay: cell-based. As to conditions: unit assumed. The procedure:
as §1

For assay [19], the system named is Streptococcus pneumoniae Park I. Type of assay: cell-based. The note with it: agar dilution, unit assumed. How it is done:
as §1

Assay [20] has as its system Mycoplasma synoviae. In words: conventional broth-dilution microtiter test (MIC). It is filed as cell-based. The note with it: unit assumed. How it is done: as §1

Turning to `CCC(=O)OCC1C=C(C)C=CC(=O)C(C)CC(CC=O)C(OC2OC(C)C(OC3CC(C)(O)C(O)C(C)O3)C(N(C)C)C2O)C(C)C(O)CC(=O)OC1CC` (stereo not drawn) [Compound 4, 23-O-Propionyl-DMT], the median effective dose (ED50) in assay [1] (C203, oral) turned out to be 300 mg/kg; in assay [1] (C203, sc, subcutaneous), 13 mg/kg. Also, the MIC in [2] is 2 µg/mL (≈ 2.51 µM); in assay [3], 1 µg/mL (≈ 1.25 µM); in assay [4] it was 1 µg/mL (≈ 1.25 µM); in [5] it was 32 µg/mL (≈ 40.1 µM); in assay [6], 32 µg/mL (≈ 40.1 µM); in assay [7] it was 1 µg/mL (≈ 1.25 µM). The MIC was found to be 1 µg/mL (≈ 1.25 µM) in assay [8]; 1 µg/mL (≈ 1.25 µM) in assay [9]; 1 µg/mL (≈ 1.25 µM) in assay [10]; 0.5 µg/mL (≈ 0.627 µM) in [11]; 0.5 µg/mL (≈ 0.627 µM) in [12]; 25 µg/mL (≈ 31.3 µM) in [13]. Further, the MIC in assay [14] is 0.78 µg/mL (≈ 0.977 µM); in assay [15], 0.39 µg/mL (≈ 0.489 µM); in assay [16] it was 3.12 µg/mL (≈ 3.91 µM); in assay [17], 6.25 µg/mL (≈ 7.83 µM); in assay [18], 0.39 µg/mL (≈ 0.489 µM).

On to `CCC1OC(=O)CC(O)C(C)C(OC2OC(C)C(OC3CC(C)(O)C(O)C(C)O3)C(N(C)C)C2O)C(CC=O)CC(C)C(=O)C=CC(C)=CC1COC(=O)OC` (stereo not drawn) [Compound 25], for which the ED50 in assay [1] (C203, oral) was more than 100 mg/kg; in assay [1] (C203, sc, subcutaneous) it was 7.6 mg/kg. The MIC came out at 0.06 µg/mL (≈ 0.075 µM) in [19]; 0.5 µg/mL (≈ 0.625 µM) in [2]; 0.25 µg/mL (≈ 0.313 µM) in assay [3]; 0.5 µg/mL (≈ 0.625 µM) in [4]; 8 µg/mL (≈ 10 µM) in assay [5]; 8 µg/mL (≈ 10 µM) in assay [6]. For the same compound, the MIC was determined as 0.25 µg/mL (≈ 0.313 µM) in assay [7]; 0.5 µg/mL (≈ 0.625 µM) in [9]; 0.5 µg/mL (≈ 0.625 µM) in assay [10]; 0.25 µg/mL (≈ 0.313 µM) in assay [11]; 0.5 µg/mL (≈ 0.625 µM) in assay [12]; 12.5 µg/mL (≈ 15.6 µM) in [13]. Also, the MIC in [14] was 1.56 µg/mL (≈ 1.95 µM); in [15] it was 0.097 µg/mL (≈ 0.121 µM); in assay [16], 1.56 µg/mL (≈ 1.95 µM); in assay [17], 6.25 µg/mL (≈ 7.81 µM); in [18], 0.78 µg/mL (≈ 0.975 µM); in assay [20], 0.097 µg/mL (≈ 0.121 µM).

With `CCC(=O)OCC1C=C(C)C=CC(=O)C(C)CC(CC=O)C(OC2OC(C)C(OC3CC(C)(O)C(O)C(C)O3)C(N(C)C)C2OC(=O)CC)C(C)C(O)CC(=O)OC1CC` (stereo not drawn) [Compound 3, 2',23-Di-O-Propionyl-DMT], the ED50 in assay [1] (C203, oral) was 117 mg/kg; in assay [1] (C203, sc, subcutaneous), more than 20 mg/kg. For the same compound, the MIC in [19] was 0.5 µg/mL (≈ 0.585 µM); in [2], 2 µg/mL (≈ 2.34 µM); in assay [3] it was 1 µg/mL (≈ 1.17 µM); in assay [4], 0.5 µg/mL (≈ 0.585 µM); in assay [5], 16 µg/mL (≈ 18.7 µM); in [6], 16 µg/mL (≈ 18.7 µM). Also, the MIC turned out to be 0.5 µg/mL (≈ 0.585 µM) in [7]; 1 µg/mL (≈ 1.17 µM) in assay [8]; 1 µg/mL (≈ 1.17 µM) in [9]; 1 µg/mL (≈ 1.17 µM) in assay [10]; 0.5 µg/mL (≈ 0.585 µM) in [11]; 0.5 µg/mL (≈ 0.585 µM) in assay [12]. Besides, the MIC in assay [13] worked out at 12.5 µg/mL (≈ 14.6 µM); in assay [14], 0.78 µg/mL (≈ 0.913 µM); in assay [15] it was 0.78 µg/mL (≈ 0.913 µM); in assay [16], 1.56 µg/mL (≈ 1.83 µM); in assay [17], 6.25 µg/mL (≈ 7.32 µM); in [18], 0.78 µg/mL (≈ 0.913 µM). The same compound returned an MIC in assay [20] of 0.195 µg/mL (≈ 0.228 µM).

For the compound `CCC1OC(=O)CC(O)C(C)C(OC2OC(C)C(OC3CC(C)(O)C(O)C(C)O3)C(N(C)C)C2OC(C)=O)C(CC=O)CC(C)C(=O)C=CC(C)=CC1COC(C)=O` (stereo not drawn) [Compound 1, 2',23-Di-O-Acetyl-DMT], the median effective dose (ED50) was 212 mg/kg in assay [1] (C203, oral) and more than 20 mg/kg in assay [1] (C203, sc, subcutaneous). The MIC in assay [19] amounted to 0.25 µg/mL (≈ 0.303 µM); in assay [2], 2 µg/mL (≈ 2.42 µM); in assay [3], 2 µg/mL (≈ 2.42 µM); in assay [4], 2 µg/mL (≈ 2.42 µM); in [5], 16 µg/mL (≈ 19.4 µM); in assay [6], 16 µg/mL (≈ 19.4 µM). Moreover, the MIC stood at 1 µg/mL (≈ 1.21 µM) in assay [7]; 2 µg/mL (≈ 2.42 µM) in assay [8]; 2 µg/mL (≈ 2.42 µM) in assay [9]; 1 µg/mL (≈ 1.21 µM) in [10]; 1 µg/mL (≈ 1.21 µM) in assay [11]; 1 µg/mL (≈ 1.21 µM) in assay [12]. Besides, the MIC was 12.5 µg/mL (≈ 15.1 µM) in [13]; 0.78 µg/mL (≈ 0.944 µM) in assay [14]; 0.39 µg/mL (≈ 0.472 µM) in assay [15]; 3.12 µg/mL (≈ 3.78 µM) in assay [16]; 6.25 µg/mL (≈ 7.57 µM) in assay [17]; 0.78 µg/mL (≈ 0.944 µM) in assay [18].

For the compound `CCC1OC(=O)CC(O)C(C)C(OC2OC(C)C(OC3CC(C)(O)C(O)C(C)O3)C(N(C)C)C2OC(C)=O)C(CC=O)CC(C)C(=O)C=CC(C)=CC1COC(=O)Cc1cc(OC)ccc1OC` (stereo not drawn) [Compound 20], the MIC in [19] stood at 0.06 µg/mL (≈ 0.0624 µM); in assay [2], 0.5 µg/mL (≈ 0.52 µM); in assay [3] it was 0.5 µg/mL (≈ 0.52 µM); in assay [4], 0.5 µg/mL (≈ 0.52 µM); in assay [5] it was 32 µg/mL (≈ 33.3 µM); in [6] it was 16 µg/mL (≈ 16.6 µM). The MIC in assay [7] is 0.5 µg/mL (≈ 0.52 µM); in assay [8], 0.5 µg/mL (≈ 0.52 µM); in assay [9], 0.5 µg/mL (≈ 0.52 µM); in assay [10], 2 µg/mL (≈ 2.08 µM); in assay [11], 0.25 µg/mL (≈ 0.26 µM); in assay [12] it was 0.5 µg/mL (≈ 0.52 µM). Besides, the MIC in assay [13] is 25 µg/mL (≈ 26 µM); in assay [14], 0.78 µg/mL (≈ 0.811 µM); in assay [15] it was 0.195 µg/mL (≈ 0.203 µM); in assay [16] it was 1.56 µg/mL (≈ 1.62 µM); in [17], 12.5 µg/mL (≈ 13 µM); in [18] it was 0.195 µg/mL (≈ 0.203 µM). In [20], this compound returned an MIC of 0.39 µg/mL (≈ 0.405 µM).
